Data published in publication PMC7468108 (Communications Biology, 2020).

Experiments:
[1] = biological target: T1, Aβ42 (Homo sapiens, UniProt P05067); assay: CD spectroscopy of Aβ42 aggregated with the tested molecules; conditions: 5-fold molar excess of compound
T1 construct: purchased rPeptide (USA)
Method: The blank was subtracted from the acquired CD spectra. For the CD study in the presence of the tryptophan-galacosylamine molecules, the spectra of hybrid molecules were also recorded separately and subtracted from the respective sample spectra. The normalized data were plotted using Origin pro 2015 software.

[2] = XTT assay, cytotoxicity of the hybrid molecules towards HEK-293; assay type: cell-based; conditions: human, HEK-293 cells
Method: To this end, we first tested whether the hybrid molecules carried any cytotoxicity themselves. […] No considerable toxicity (≥95% viability) was caused by the hybrid molecules towards either cell line, even at the highest concentration of 250 µM (Fig. 8).
(§1) The SH-SY5Y and HEK-293 cell lines (2 × 10^5 cells/mL) were cultured in 96-well tissue microplates (100 µL/well) and allowed to adhere overnight at 37 °C. The conjugate molecules were dissolved in DMEM:nutrient mixture F12 (Ham’s) (1:1) (Biological Industries, Israel) at different concentrations. The negative control was prepared as medium without hybrid molecules and treated in the same manner. 100 µL of medium with or without hybrid molecules were added to each well in triplicate. Following incubation for 24 h at 37 °C, cell viability was evaluated using the 2,3-bis(2-methoxy-4-nitro-5-sulfophenyl)-2H-tetrazolium-5-carboxanilide (XTT) cell proliferation assay kit (Biological Industries, Israel) according to the manufacturer’s instructions. Briefly, 100 µL of activation reagent was added to 5 mL of XTT reagent, followed by the addition of 50 µL of activated-XTT solution to each well. After 2 h incubation at 37 °C, color intensity was measured using an ELISA microplate reader at 450 nm and 630 nm. Results are presented as mean and mean standard error. Each experiment was repeated minimum three times.

[3] = biological target: T2, hIAPP (Homo sapiens, UniProt P10997); assay: ThT-binding assay, inhibition of hIAPP aggregation; assay type: biochemical; conditions: for Normalized ThT fluorescence: hIAPP (10 µM) : molecule 1:5, average of three data sets; for % amyloid of hIAPP: hIAPP 10 µM
T2 construct: hIAPP is a 37-amino acid neuroendocrine peptide hormone; purchased Peptide 2.0 (USA)
T2 sequence (P10997 34-70 limits assumed): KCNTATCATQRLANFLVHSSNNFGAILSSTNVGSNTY
Method: A similar inhibitory effect by the hybrid molecules was found toward hIAPP aggregation. […] Upon co-incubation of hIAPP with the hybrid molecules, a dose-response inhibition of hIAPP fibril formation was observed (Fig. 2d, e and Supplementary Fig. 3). […] Also, for IAPP, the marginally stronger inhibitory effect of WGalNAc was statistically significant (Supplementary Fig. 2b).
The resulting thin films were dissolved in PBS (100 mM, pH 7.4) and sonicated for 5 min to get a stock concentration of 50 µM, which immediately diluted to required concentration for an experiment. Stock solutions of ThT (4 mM in PBS) and hybrid molecules (10 mM in PBS) were prepared. All the stock solutions were diluted according to the requirement.
The experiment was performed according to the previous report. […] Kinetics fluorescence data were collected at 37 °C in triplicate using Infinite M200 microplate reader (Tecan, Switzerland), with measurements acquired at 15 min intervals. Excitation and emission wavelengths were set at 440 nm and 485 nm, respectively.

[4] = test system: HEK-293 cells exposed to pre-formed hIAPP fibrils; assay: XTT assay, reduction of hIAPP-induced cytotoxicity in HEK-293; assay type: cell-based; conditions: Homo sapiens
Method: The peptide assemblies were then incubated for further 24 h with SH-SY5Y or HEK-293 cells and cell viability was monitored by XTT assay (Fig. 9). […] The mixtures were then independently applied to the respective cells for 24 h, and cell viability was further measured by XTT assay (Fig. 10a).
as §1
For the quantitative data derived from ThT and XTT assays, statistical significance, expressed as p-value, was determined using Student’s t-test calculation applied at the end of the experiments, setting tails to 2 (tailed distribution) and type to 2 (samples equal variance), according to reported methods. From the XTT viability assays, EC50 and Emax values were determined from the dose-response curves of each tested molecule using non-linear least-square data fitting, according to literature.

T1 sequence (P05067 672-713 limits assumed): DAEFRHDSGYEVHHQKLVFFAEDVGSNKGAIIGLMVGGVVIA

NC(Cc1c[nH]c2ccccc12)C(=O)NC(Cc1c[nH]c2ccccc12)C(=O)O (centres unmarked) [WW]
effect on Aβ42 secondary structure (CD), in words [1]: No significant variation
viability at 24 h, 0.2 µM ([2]; 0.2µM): 93.6%
viability at 24 h, 1 µM ([2]; 1 µM): 98.4%
viability at 24 h, 10 µM ([2]; 10 µM): 94.3%
viability at 24 h, 50 µM ([2]; 50 µM): 84.5%
viability at 24 h, 250 µM ([2]; 250 µM): 83.7%
viability at 24 h, 250 µM ([2]; HEK-293, 250 µM, 24 h): ~83%
Normalized ThT fluorescence ([3]; Time 0 h): 29.978
Normalized ThT fluorescence ([3]; Time 0.25 h): -2.428
Normalized ThT fluorescence ([3]; Time 0.5 h): 312.254
Normalized ThT fluorescence ([3]; Time 0.75 h): 629.363
Normalized ThT fluorescence ([3]; Time 1 h): 980.330
Normalized ThT fluorescence ([3]; Time 1.25 h): 1609.153
Normalized ThT fluorescence ([3]; Time 1.5 h): 2335.279
Normalized ThT fluorescence ([3]; Time 1.75 h): 2857.634
Normalized ThT fluorescence ([3]; Time 2 h): 3166.885
Normalized ThT fluorescence ([3]; Time 2.25 h): 3521.809
Normalized ThT fluorescence ([3]; Time 2.5 h): 3762.743
Normalized ThT fluorescence ([3]; Time 2.75 h): 4063.191
Normalized ThT fluorescence ([3]; Time 3 h): 4256.338
Normalized ThT fluorescence ([3]; Time 3.25 h): 4441.516
Normalized ThT fluorescence ([3]; Time 3.5 h): 4588.861
Normalized ThT fluorescence ([3]; Time 3.75 h): 4641.496
Normalized ThT fluorescence ([3]; Time 4 h): 4783.902
Normalized ThT fluorescence ([3]; Time 4.25 h): 5155.140
Normalized ThT fluorescence ([3]; Time 4.5 h): 5083.691
Normalized ThT fluorescence ([3]; Time 4.75 h): 5147.945
Normalized ThT fluorescence ([3]; Time 5 h): 5383.622
Normalized ThT fluorescence ([3]; Time 5.25 h): 5413.206
Normalized ThT fluorescence ([3]; Time 5.5 h): 5636.242
Normalized ThT fluorescence ([3]; Time 5.75 h): 5718.561
Normalized ThT fluorescence ([3]; Time 6 h): 5762.151
Normalized ThT fluorescence ([3]; Time 6.25 h): 5998.572
Normalized ThT fluorescence ([3]; Time 6.5 h): 6267.216
Normalized ThT fluorescence ([3]; Time 6.75 h): 6187.949
Normalized ThT fluorescence ([3]; Time 7 h): 6251.809
Normalized ThT fluorescence ([3]; Time 7.25 h): 6421.160
Normalized ThT fluorescence ([3]; Time 7.5 h): 6518.393
Normalized ThT fluorescence ([3]; Time 7.75 h): 6603.373
Normalized ThT fluorescence ([3]; Time 8 h): 6737.364
Normalized ThT fluorescence ([3]; Time 8.25 h): 6750.786
Normalized ThT fluorescence ([3]; Time 8.5 h): 6792.841
Normalized ThT fluorescence ([3]; Time 8.75 h): 6865.131
Normalized ThT fluorescence ([3]; Time 9 h): 6824.556
Normalized ThT fluorescence ([3]; Time 9.25 h): 6905.238
Normalized ThT fluorescence ([3]; Time 9.5 h): 6910.878
Normalized ThT fluorescence ([3]; Time 9.75 h): 6951.940
Normalized ThT fluorescence ([3]; Time 10 h): 6938.219
Normalized ThT fluorescence ([3]; Time 10.25 h): 6978.295
Normalized ThT fluorescence ([3]; Time 10.5 h): 7036.631
Normalized ThT fluorescence ([3]; Time 10.75 h): 7131.130
Normalized ThT fluorescence ([3]; Time 11 h): 7205.208
Normalized ThT fluorescence ([3]; Time 11.25 h): 7201.975
Normalized ThT fluorescence ([3]; Time 11.5 h): 7247.388
Normalized ThT fluorescence ([3]; Time 11.75 h): 7228.342
Normalized ThT fluorescence ([3]; Time 12 h): 7216.738
Normalized ThT fluorescence ([3]; Time 12.25 h): 7265.266
Normalized ThT fluorescence ([3]; Time 12.5 h): 7198.053
Normalized ThT fluorescence ([3]; Time 12.75 h): 7266.511
Normalized ThT fluorescence ([3]; Time 13 h): 7230.088
Normalized ThT fluorescence ([3]; Time 13.25 h): 7204.082
Normalized ThT fluorescence ([3]; Time 13.5 h): 7254.393
Normalized ThT fluorescence ([3]; Time 13.75 h): 7295.955
Normalized ThT fluorescence ([3]; Time 14 h): 7250.976
Normalized ThT fluorescence ([3]; Time 14.25 h): 7276.851
Normalized ThT fluorescence ([3]; Time 14.5 h): 7406.119
Normalized ThT fluorescence ([3]; Time 14.75 h): 7447.878
Normalized ThT fluorescence ([3]; Time 15 h): 7365.784
% amyloid of hIAPP ([3]; molar ratio hIAPP:tested molecule 1:1): 105.600%
% amyloid of hIAPP ([3]; molar ratio hIAPP:tested molecule 1:5): 115.433%
% amyloid of hIAPP ([3]; molar ratio hIAPP:tested molecule 5:1): 99.082%
inhibition of hIAPP fibril formation (ThT), in words ([3]; molar ratios 5:1, 1:1, 1:5): No inhibitory effect
viability at 10 µM ([4]; HEK293, hIAPP (10 µM) : molecule 1:1, HEK-293 cells, normalized XTT data): 55.2%
viability at 50 µM ([4]; HEK293, hIAPP (10 µM) : molecule 1:5, HEK-293 cells, normalized XTT data): 57.7%
viability at 200 µM ([4]; HEK293, hIAPP (10 µM) : molecule 1:20, HEK-293 cells, normalized XTT data): 58.5%
viability at 2 µM ([4]; HEK293, hIAPP (10 µM) : molecule 5:1, HEK-293 cells, normalized XTT data): 55.6%
EC50 ([4]; HEK293, reduction of cytotoxicity of pre-formed hIAPP fibrils 10 µM, HEK-293): 10 µM
